We go through two compounds from ChEMBL document CHEMBL1201862, “PubChem BioAssay data set” (2004).

Active and inactive are the calls of the source.

The target of experiment [1] is Bifunctional protein GlmU (Mycobacterium tuberculosis, UniProt P9WMN3). The experiment is described as follows: Inhibitors of Mycobacterial Glucosamine-1-phosphate acetyl transferase (GlmU). Secondary screen. The arrangement: species or system Mycobacterium tuberculosis H37Rv.
Experiment [2] deals with T1, Rac GTPase-activating protein 1 (Homo sapiens, UniProt Q9H0H5).
T1 sequence (Q9H0H5 whole entry): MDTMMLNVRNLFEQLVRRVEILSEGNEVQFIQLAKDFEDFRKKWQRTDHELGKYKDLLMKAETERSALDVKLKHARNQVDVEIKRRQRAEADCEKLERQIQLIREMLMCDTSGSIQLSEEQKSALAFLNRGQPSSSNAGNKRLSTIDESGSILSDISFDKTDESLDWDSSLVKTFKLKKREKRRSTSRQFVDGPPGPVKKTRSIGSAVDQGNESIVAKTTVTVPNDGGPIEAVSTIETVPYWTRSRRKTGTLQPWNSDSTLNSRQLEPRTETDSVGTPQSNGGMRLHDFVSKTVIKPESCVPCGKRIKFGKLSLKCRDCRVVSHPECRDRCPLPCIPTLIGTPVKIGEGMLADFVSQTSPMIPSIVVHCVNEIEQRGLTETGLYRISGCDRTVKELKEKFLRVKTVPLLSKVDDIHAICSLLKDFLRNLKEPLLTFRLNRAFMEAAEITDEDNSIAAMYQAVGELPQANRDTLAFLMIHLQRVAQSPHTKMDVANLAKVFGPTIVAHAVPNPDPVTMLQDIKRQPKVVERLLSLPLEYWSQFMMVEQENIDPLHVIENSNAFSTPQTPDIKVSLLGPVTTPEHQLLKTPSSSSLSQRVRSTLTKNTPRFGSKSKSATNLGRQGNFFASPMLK
The experiment is described as follows: MgcRacGAP GTPase-activating activity inhibitors, confirmation, biochemical, ADP Hunter fluorescence, primary and confirmatory (AID 624330). Type of experiment: functional.

Experiment [3] concerns the target T2, 1-phosphatidylinositol 4,5-bisphosphate phosphodiesterase gamma-1 (Homo sapiens, UniProt P19174).
T2 sequence (P19174 whole entry): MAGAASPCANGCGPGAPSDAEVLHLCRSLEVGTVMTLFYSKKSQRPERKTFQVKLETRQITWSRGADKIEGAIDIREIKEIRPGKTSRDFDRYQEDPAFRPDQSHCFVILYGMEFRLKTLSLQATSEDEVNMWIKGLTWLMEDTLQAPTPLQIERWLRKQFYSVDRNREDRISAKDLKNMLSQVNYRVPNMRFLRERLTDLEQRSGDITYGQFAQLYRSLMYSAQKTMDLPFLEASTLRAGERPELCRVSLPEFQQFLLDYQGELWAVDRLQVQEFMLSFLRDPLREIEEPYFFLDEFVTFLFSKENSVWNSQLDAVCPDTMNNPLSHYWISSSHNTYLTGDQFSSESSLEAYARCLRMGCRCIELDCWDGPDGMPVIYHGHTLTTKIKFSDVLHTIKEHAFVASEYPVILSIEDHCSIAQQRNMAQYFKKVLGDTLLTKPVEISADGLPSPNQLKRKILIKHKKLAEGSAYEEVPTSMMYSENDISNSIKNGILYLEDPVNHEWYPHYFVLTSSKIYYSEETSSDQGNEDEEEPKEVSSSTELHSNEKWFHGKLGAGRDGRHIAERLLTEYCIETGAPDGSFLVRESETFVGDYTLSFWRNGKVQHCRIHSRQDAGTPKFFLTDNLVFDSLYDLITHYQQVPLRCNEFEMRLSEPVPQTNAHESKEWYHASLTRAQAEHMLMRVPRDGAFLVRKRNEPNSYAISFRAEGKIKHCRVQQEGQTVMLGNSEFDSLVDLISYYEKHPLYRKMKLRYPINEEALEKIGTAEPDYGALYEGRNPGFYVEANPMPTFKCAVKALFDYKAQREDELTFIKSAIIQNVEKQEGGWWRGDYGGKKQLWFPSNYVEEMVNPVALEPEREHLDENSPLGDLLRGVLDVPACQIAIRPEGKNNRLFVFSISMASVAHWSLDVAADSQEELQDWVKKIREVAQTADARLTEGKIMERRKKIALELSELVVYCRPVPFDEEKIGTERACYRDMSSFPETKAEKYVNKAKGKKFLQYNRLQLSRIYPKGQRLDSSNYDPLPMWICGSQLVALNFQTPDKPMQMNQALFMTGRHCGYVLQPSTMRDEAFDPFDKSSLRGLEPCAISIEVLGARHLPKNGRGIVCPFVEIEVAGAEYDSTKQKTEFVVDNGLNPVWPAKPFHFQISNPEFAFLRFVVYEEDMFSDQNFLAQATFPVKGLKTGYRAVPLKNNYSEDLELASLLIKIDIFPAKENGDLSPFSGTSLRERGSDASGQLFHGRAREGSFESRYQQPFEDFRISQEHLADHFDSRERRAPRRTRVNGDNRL
The experiment is described as follows: Counterscreen for inhibitors of phospholipase C isozymes (PLC-B3): Fluorescence-based biochemical high throughput dose response assay to identify inhibitors of phospholipase C isozymes (PLC-gamma1). In general terms: The purpose of a counterscreen is to sort out artefacts and off-target activity.

The target in another experiment is Aurora kinase B (Homo sapiens, UniProt Q96GD4). The format is functional.
The target in experiment [4] is Serine/threonine-protein kinase MRCK alpha (Homo sapiens, UniProt Q5VT25). Type of experiment: functional.
The target of experiment [5] is STE20-like serine/threonine-protein kinase (Homo sapiens, UniProt Q9H2G2). Type of experiment: functional.
The target in experiment [6] is Inhibitor of nuclear factor kappa-B kinase subunit epsilon (Homo sapiens, UniProt Q14164). The experiment is described as follows: Navigating the Kinome. Panel member name: IKBKE. Type of experiment: functional.
Experiment [7] has as its target Serine/threonine-protein kinase pim-2 (Homo sapiens, UniProt Q9P1W9). Type of experiment: functional.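 Also: value comes from a broad kinase panel profiling study in which PIM2 was one of the panel members.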
For experiment [8], the target named is Serine/threonine-protein kinase PLK3 (Homo sapiens, UniProt Q9H4B4). Type of experiment: functional.
For experiment [9], the target named is Vascular endothelial growth factor receptor 2 (Homo sapiens, UniProt P35968). Type of experiment: functional.
The target of experiment [10] is Mitogen-activated protein kinase 9 (Homo sapiens, UniProt P45984). The format is functional.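 Also: value from a kinome panel profiling assay, MAPK9 panel entry.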
The target of experiment [11] is Serine/threonine-protein kinase TAO1 (Homo sapiens, UniProt Q7L7X3). The format is functional.
Experiment [12] has as its target Proto-oncogene tyrosine-protein kinase Src (Homo sapiens, UniProt P12931). Type of experiment: functional.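 Also: SRC entry within a kinome-wide kinase profiling panel.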
The target of experiment [13] is Serine/threonine-protein kinase N2 (Homo sapiens, UniProt Q16513). The format is functional.
In experiment [14] the target is Serine/threonine-protein kinase PLK1 (Homo sapiens, UniProt P53350). The format is functional.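 Also: PLK1 measured as one member of a kinome-wide profiling panel.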
Experiment [15] has as its target Calcium/calmodulin-dependent protein kinase type II subunit delta (Homo sapiens, UniProt Q13557). Type of experiment: functional.
For experiment [16], the target named is Serine/threonine-protein kinase PAK 1 (Homo sapiens, UniProt Q13153). Type of experiment: functional.
The target in experiment [17] is RAC-gamma serine/threonine-protein kinase (Homo sapiens, UniProt Q9Y243). The format is functional.
Sequence of RAC-gamma serine/threonine-protein kinase (Q9Y243 whole entry): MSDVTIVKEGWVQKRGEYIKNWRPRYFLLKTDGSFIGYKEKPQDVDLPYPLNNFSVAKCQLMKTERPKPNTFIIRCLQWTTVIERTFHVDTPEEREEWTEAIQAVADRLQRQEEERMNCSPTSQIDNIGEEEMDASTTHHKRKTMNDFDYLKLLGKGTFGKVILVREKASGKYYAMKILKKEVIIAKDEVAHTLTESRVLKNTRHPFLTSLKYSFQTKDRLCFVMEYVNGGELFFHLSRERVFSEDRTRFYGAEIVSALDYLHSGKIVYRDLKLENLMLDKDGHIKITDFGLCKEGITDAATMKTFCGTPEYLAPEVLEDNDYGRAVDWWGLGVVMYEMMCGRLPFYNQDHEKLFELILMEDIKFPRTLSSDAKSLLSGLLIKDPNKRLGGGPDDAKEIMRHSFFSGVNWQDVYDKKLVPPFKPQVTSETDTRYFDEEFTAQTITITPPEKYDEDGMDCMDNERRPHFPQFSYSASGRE

Sequence of Mitogen-activated protein kinase 9 (P45984 whole entry): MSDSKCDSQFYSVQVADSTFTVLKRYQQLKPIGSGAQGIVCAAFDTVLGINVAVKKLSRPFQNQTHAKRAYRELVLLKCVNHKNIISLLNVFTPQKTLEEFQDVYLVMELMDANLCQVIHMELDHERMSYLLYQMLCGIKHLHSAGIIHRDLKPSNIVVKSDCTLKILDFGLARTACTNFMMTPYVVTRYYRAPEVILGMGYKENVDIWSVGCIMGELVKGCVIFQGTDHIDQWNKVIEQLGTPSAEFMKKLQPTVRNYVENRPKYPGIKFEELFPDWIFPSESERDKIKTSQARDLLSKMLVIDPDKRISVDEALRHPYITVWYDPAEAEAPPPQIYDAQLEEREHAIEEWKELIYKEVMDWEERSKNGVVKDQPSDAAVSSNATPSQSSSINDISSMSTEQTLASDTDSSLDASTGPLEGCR
Sequence of Serine/threonine-protein kinase PAK 1 (Q13153 whole entry): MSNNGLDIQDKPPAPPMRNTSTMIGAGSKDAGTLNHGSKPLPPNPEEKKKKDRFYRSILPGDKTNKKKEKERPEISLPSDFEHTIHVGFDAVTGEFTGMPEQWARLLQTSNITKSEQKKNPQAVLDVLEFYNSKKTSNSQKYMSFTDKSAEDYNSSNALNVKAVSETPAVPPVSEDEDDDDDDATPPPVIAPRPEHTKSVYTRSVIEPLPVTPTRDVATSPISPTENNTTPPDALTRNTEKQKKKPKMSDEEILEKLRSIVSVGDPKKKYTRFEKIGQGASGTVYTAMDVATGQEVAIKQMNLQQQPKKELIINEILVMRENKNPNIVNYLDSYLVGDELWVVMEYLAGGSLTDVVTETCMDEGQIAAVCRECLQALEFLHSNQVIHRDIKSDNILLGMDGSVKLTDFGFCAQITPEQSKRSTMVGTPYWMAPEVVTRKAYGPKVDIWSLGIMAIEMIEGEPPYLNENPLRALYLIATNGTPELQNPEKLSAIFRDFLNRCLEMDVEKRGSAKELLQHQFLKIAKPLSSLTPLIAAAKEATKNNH
Sequence of Proto-oncogene tyrosine-protein kinase Src (P12931 2-536 limits assumed): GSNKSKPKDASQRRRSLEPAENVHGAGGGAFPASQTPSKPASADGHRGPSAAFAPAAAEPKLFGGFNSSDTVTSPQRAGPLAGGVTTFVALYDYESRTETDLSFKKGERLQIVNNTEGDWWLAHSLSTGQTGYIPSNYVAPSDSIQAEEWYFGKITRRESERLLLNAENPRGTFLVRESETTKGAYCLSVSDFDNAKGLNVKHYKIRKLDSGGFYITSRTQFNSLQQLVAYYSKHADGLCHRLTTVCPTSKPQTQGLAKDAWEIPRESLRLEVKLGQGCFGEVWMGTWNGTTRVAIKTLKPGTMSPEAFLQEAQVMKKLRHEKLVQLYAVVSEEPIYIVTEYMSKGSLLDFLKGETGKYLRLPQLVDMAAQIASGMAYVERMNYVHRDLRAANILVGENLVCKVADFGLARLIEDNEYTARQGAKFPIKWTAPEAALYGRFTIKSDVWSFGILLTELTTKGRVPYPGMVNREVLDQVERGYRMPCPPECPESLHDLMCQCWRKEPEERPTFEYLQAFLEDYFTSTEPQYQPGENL
Sequence of Calcium/calmodulin-dependent protein kinase type II subunit delta (Q13557 whole entry): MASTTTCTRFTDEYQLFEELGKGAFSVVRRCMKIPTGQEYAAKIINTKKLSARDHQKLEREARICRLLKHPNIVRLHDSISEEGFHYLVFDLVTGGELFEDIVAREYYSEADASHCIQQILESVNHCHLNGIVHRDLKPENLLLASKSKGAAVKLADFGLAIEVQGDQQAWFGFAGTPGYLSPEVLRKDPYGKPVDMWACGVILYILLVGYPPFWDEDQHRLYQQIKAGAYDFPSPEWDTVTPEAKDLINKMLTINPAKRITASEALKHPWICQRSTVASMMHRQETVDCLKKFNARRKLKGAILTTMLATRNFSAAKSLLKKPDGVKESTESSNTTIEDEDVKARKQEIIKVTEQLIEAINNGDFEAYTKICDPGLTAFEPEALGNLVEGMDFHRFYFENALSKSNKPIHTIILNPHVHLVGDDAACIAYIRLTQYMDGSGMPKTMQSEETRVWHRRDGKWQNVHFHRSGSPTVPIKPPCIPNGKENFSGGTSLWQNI
Sequence of Inhibitor of nuclear factor kappa-B kinase subunit epsilon (Q14164 whole entry): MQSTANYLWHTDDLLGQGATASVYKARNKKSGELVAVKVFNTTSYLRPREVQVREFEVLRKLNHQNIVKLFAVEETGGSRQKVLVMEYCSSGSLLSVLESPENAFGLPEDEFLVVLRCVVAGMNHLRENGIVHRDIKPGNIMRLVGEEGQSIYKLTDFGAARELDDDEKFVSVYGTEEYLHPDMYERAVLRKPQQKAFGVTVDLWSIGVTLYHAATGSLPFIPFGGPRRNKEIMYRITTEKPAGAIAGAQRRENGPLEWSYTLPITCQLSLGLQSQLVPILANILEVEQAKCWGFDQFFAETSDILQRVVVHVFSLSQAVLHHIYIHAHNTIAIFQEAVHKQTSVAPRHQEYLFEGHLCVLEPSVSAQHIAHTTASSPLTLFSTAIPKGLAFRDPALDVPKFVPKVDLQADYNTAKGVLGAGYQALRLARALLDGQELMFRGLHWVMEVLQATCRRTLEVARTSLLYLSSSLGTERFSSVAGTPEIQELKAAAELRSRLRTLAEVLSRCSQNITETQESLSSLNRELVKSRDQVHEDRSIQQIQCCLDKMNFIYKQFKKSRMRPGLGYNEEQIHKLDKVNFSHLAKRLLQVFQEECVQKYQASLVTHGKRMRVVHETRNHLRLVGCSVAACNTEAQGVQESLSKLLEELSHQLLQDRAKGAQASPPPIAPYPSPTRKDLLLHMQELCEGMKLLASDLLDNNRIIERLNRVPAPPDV
Sequence of Serine/threonine-protein kinase MRCK alpha (Q5VT25 whole entry): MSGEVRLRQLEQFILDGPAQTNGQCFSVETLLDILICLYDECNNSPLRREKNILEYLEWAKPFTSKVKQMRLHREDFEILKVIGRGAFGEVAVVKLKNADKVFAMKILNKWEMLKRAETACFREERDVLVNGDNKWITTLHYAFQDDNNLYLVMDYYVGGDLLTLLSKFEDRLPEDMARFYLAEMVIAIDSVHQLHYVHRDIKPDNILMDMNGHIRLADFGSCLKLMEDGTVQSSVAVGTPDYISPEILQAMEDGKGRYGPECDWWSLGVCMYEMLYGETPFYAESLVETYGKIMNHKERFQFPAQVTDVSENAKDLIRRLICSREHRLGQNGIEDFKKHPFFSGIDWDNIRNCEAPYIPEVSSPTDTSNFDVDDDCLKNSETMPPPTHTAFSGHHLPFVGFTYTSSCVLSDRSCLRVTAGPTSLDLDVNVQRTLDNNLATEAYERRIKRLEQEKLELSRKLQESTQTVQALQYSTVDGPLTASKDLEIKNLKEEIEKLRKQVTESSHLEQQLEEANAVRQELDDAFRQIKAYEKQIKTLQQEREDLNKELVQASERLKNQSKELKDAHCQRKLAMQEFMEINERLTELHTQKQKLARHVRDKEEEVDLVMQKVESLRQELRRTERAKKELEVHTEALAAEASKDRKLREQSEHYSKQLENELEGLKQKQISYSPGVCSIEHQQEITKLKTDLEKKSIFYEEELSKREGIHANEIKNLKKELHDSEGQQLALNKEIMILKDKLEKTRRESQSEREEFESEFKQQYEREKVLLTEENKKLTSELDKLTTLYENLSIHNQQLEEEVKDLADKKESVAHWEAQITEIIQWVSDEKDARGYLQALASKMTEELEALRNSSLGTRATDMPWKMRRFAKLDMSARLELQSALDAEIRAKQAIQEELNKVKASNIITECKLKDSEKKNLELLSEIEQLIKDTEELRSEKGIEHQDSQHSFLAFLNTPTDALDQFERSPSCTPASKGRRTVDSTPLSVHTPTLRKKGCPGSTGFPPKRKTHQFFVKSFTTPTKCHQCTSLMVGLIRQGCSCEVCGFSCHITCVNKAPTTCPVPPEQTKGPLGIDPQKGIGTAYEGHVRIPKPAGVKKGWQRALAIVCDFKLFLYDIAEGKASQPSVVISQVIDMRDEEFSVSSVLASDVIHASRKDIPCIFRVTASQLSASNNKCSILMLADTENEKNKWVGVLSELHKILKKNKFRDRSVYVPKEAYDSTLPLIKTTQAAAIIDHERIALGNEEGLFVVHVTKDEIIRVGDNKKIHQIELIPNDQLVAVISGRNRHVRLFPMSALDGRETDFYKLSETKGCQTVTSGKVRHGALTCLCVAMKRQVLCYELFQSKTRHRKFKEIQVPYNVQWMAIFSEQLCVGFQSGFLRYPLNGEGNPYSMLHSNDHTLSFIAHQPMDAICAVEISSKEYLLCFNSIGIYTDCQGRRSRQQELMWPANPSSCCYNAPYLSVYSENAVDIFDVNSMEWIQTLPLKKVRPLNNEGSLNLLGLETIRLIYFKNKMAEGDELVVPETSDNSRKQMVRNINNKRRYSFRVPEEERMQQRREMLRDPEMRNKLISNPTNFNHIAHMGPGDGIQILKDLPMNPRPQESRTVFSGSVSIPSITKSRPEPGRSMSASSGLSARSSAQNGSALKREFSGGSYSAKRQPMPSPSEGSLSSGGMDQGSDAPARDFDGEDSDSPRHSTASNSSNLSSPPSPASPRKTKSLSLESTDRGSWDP

A word on the IC50: it is the point on the concentration scale where inhibition reaches its midpoint. With `Cc1ccc(/C=C2/C(=O)c3ccc(C(=O)O)cc3C2=O)o1`, the values for the IC50 in experiment [1], in experiment [2] and in experiment [3] were 174 µM (active), 294 µM (active) and > 122 µM (inactive), respectively.
Broadly, the Ki is the equilibrium dissociation constant of an inhibitor or competing ligand from its target. As for `Clc1cc(NC2CCCCC2)nc(-c2c[nH]c3ncccc23)n1`, the Ki on Aurora kinase B was 1 µM (active); in [4], 0.0398 µM (active); in [5], 0.501 µM (active); in experiment [6], > 3.16 µM (inactive); in [7], > 2 µM (inactive); in experiment [8] it was 3.98 µM (active). Also, the Ki in experiment [9] is > 2 µM (inactive); in experiment [10], 3.16 µM (active); in experiment [11], > 6.31 µM (inactive); in experiment [12], > 2 µM (inactive); in experiment [13] it was 0.126 µM (active); in experiment [14], 0.501 µM (active). Besides, the Ki in experiment [15] was > 3.16 µM (inactive); in experiment [16] it was 1.58 µM (active); in experiment [17], > 10 µM (inactive).
